Source: patent publication US8105636B2, “Compositions and methods for treating inflammation and inflammation-related disorders by Plectranthus amboinicus extracts” (Academia Sinica, priority 2007, dated 2012)
Read-outs that look alike come from different tables or passages of the source.

What was measured:
AP-1 = target: T1, AP-1 (Homo sapiens, UniProt P01100+P05412); test: AP-1 inhibition assay (ELISA), AP-1 binding to AP-1 recognition sequence
T1 construct: (Histidine)6; Strep-tag; made in house; host or cells: bacterial cells harboring pFos-Jun
T1 sequence (P01100 whole entry): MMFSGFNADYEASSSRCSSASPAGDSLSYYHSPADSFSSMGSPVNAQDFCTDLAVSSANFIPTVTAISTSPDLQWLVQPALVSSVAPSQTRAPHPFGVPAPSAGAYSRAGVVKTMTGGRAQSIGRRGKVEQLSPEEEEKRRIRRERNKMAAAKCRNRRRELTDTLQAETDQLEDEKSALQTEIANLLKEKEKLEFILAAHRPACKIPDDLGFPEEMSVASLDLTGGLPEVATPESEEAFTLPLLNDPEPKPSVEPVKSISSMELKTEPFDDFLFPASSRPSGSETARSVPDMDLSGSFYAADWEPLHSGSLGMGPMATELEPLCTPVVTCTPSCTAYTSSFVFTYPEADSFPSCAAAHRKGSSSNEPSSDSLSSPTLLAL
T1 sequence (P05412 whole entry): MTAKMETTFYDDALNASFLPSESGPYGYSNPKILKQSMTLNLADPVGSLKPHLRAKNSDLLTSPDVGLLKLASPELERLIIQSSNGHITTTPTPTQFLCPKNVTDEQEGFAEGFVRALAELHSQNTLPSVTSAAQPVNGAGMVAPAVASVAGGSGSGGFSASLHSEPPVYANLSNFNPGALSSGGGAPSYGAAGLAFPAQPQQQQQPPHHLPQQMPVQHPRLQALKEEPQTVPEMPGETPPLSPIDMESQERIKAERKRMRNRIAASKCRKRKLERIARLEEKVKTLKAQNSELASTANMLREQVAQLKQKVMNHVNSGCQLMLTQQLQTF
Description: To test the effect of the compounds of the present disclosure on AP-1 binding activity to AP-1 recognition sequence, ELISA experiments were performed.
According to implementations, binding assays were developed to identify inhibitors that block the AP-1 DNA binding activities. Traditional methods call for the preparation of nuclear extracts from TPA-stimulated cells, or require separate purification of Fos and Jun followed with in vitro dimerization to form a functional AP-1 complexes. A bicistronic expression vector that can drive the expression of two genes in one plasmid was thus designed as shown in FIG. 7. In this system, a promoter would directly drive the expression of the first gene, which is connected to the second gene via a ribosome-binding site in order to confer the expression of the second genes. Any pair of genes that form heterodimer in the cells for their physiological functions can be potentially expressed as complexes in the cells using this system.
According to implementations, the expression system of FIG. 7 was used to co-express AP-1 complexes. Accordingly, Fos (as gene 1) was tagged with a (Histidine)6 tag and Jun (as Gene 2) was tagged with Strep-tag as illustrated in FIG. 8A. […] Cross-linking experiments further confirmed the Fos-Jun complexes are dimers (FIG. 8C).
The crude extracts containing or the purified proteins were used for ELISA-based and fluorescence anisotropy-based binding analysis. Labeled oligonucleotides containing one or more copies of AP-1 consensus binding sites were used in the binding assays. Biotin-labeled oligonucleotides were used to coat streptavidin-plates in ELISA-binding assays. Rhodamine or fluorescein or other fluorophores-labeled oligonucleotides were used for fluorescence anisotropy analysis.

[1] = tested on: AP-1 transcription factors; test: ELISA-based AP-1/DNA binding assay with nuclear extracts from TPA-activated HeLa or K562 cells; settings: fractions of PA crude extract from preparative C18 HPLC; FIG. 4
Description: According to implementations of experimental data shown in FIG. 5, oligonucleotide containing AP-1 binding sites were incubated nuclear extracts from TPA-stimulated K562 (K562) or HeLa (HeLa) cells. The antibodies to AP-1 complexes were added followed with horseradish peroxidase-labeled secondary antibody for ELISA-based analysis. AP-1 binding activity in the nuclear extract from TPA-stimulated cells was defined as 100% and the AP-1 binding activity of buffer only was defined as 0%.
According to implementations of experimental data shown in FIG. 6, AP-1 complexes can be formed by different proteins such as C-Jun, JunB, JunD, c-Fos, Fos-B, Fra-1 or Fra-2.
Due to the involvement of AP-1 activity in inflammatory signaling, the effects of the PA crude extract on AP-1/DNA binding activity was examined. […] The nuclear extract prepared from TPA-activated HeLa or K562 cells were used as AP-1 protein sources. After incubating with the oligonucleotides containing AP-1 binding sites, the AP-1/DNA complexes were detected with HRP-conjugated anti-c-Fos antibodies.
The PA crude extract was further fractionated with preparative HPLC using C18 column. […] This fraction was further purified by employing another C18 column using the solvent gradient from 2% acetonitrile to 90% acetonitrile containing 0.1% trifluoreoacetic acid. […]

[2] = tested on: Human umbilical vein endothelial (HUVEC) cells; test: LPS-induced cytokine/chemokine expression in HUVEC cells (Luminex); assay type: cell-based; set-up: unit not given here; settings: HUVEC cells incubated with LPS, PA crude extract 1 mg/ml
Description: Human umbilical vein endothelial (HUVEC) cells were incubated with LPS in the absence or presence of 1 mg/ml crude extract of PA. The cytokine expression profile was determined using Luminex.

[3] = ELISA, AP-1 binding activity to AP-1 recognition sequence, read-out: IC50 (AP-1 inhibition assay)

Structure (SMILES): O=C(/C=C/c1ccc(O)c(O)c1)N[C@@H](Cc1ccc(O)c(O)c1)C(=O)O [Compound 7]
- IC50 (AP-1; [3]): 9.2 ± 3.2 µM

Structure (SMILES): COC(=O)C(Cc1ccc(O)c(O)c1)NC(=O)/C=C/c1ccc(O)c(O)c1 (stereo not drawn) [Compound 5]
- IC50 (AP-1; [3]): 39 ± 31 µM

Structure (SMILES): O=C(/C=C/c1ccc(O)c(O)c1)NC[C@@H](O)C(=O)Oc1cccc(O)c1O [CHM9102]
- Inhibitory effects against AP-1 binding of HPLC fractions and isolated components (in words) [1]: inhibitory effects

Structure (SMILES): O=C(/C=C/c1ccc(O)c(O)c1)NCCc1ccc(O)c(O)c1 [Compound 8]
- IC50 (AP-1; [3]): 12.9 ± 5.9 µM

Structure (SMILES): COc1ccc2c(c1)c(CC(=O)O)c(C)n2C(=O)c1ccc(Cl)cc1 [Indomethacin]
- Eotaxin expression [2]: 29.1
- GM-CSF expression [2]: 220
- IFNg expression [2]: 2.41
- IL-1a expression [2]: 13.8
- IL-1b expression [2]: 11.7
- IL-2 expression [2]: 10.1
- IL-3 expression [2]: 8.82
- IL-4 expression [2]: 11.8
- IL-5 expression [2]: 1.24
- IL-6 expression [2]: 62300
- IL-7 expression [2]: 51.5
- IL-8 expression [2]: 8030
- IL-10 expression [2]: 1.12
- IL-12 (p40) expression [2]: 16.4
- IL-12 (p70) expression [2]: 6.43
- IL-13 expression [2]: 11.1
- IL-15 expression [2]: 13.4
- IP-10 expression [2]: 24.5
- MCP-1 expression [2]: 41800
- MIP-la expression [2]: 7.57
- RANTES expression [2]: 5.48
- TNFa expression [2]: 8.14

Structure (SMILES): CCOP(=O)(OCC)C(Cc1ccc(O)c(O)c1)NC(=O)/C=C/c1ccc(O)c(O)c1 (stereo not drawn) [Compound 9]
- IC50 (AP-1): 26.2 ± 18.9 µM

Structure (SMILES): O=C(C=Cc1ccc(O)c(O)c1)NC(Cc1ccc(O)c(O)c1)C(=O)NC(Cc1ccc(O)c(O)c1)C(=O)O (stereo not drawn) [Compound 20]
- IC50 (AP-1; [3]): 3.5 ± 2 µM

Structure (SMILES): COC(=O)C(Cc1ccc(O)c(O)c1)NC(=O)C(Cc1ccc(O)c(O)c1)NC(=O)C=Cc1ccc(O)c(O)c1 (stereo not drawn) [Compound 19]
- IC50 (AP-1; [3]): 8 ± 4.7 µM

Structure (SMILES): O=C(C=Cc1ccc(O)c(O)c1)OC(Cc1ccc(O)c(O)c1)C(=O)NC(Cc1c[nH]c2ccccc12)C(=O)O (stereo not drawn) [Compound 18]
- IC50 (AP-1; [3]): 31.9 ± 20 µM

Structure (SMILES): COC(=O)C(Cc1c[nH]c2ccccc12)NC(=O)C(Cc1ccc(O)c(O)c1)OC(=O)C=Cc1ccc(O)c(O)c1 (stereo not drawn) [Compound 17]
- IC50 (AP-1; [3]): 43.4 ± 28.2 µM

Structure (SMILES): CCOC(=O)[C@H](Cc1ccc(O)c(O)c1)NC(=O)/C=C/c1ccc(O)c(O)c1 [Compound 6]
- IC50 (AP-1; [3]): 32.5 ± 24 µM

Structure (SMILES): O=C(/C=C/c1ccc(O)c(O)c1)O[C@H](Cc1ccc(O)c(O)c1)C(=O)O [rosmarinic acid (4), rosmarinic acid]
- IC50 (AP-1; [3]): 10 ± 4.1 µM
- Inhibitory effects against AP-1 binding of HPLC fractions and isolated components (in words) [1]: inhibitory effects

Structure (SMILES): CCOC(=O)C(Cc1ccc(O)c(O)c1)OC(=O)/C=C/c1ccc(O)c(O)c1 (stereo not drawn) [Compound 10]
- IC50 (AP-1; [3]): 5.6 ± 4.2 µM

Structure (SMILES): O=C(O)/C(=C\c1ccc(O)c(O)c1)C(c1ccc(O)c(O)c1)C(O)C(=O)O (single isomer, unassigned) [Mena 987 (1)]
- IC50 (AP-1; [3]): 4.3 ± 2.6 µM

Structure (SMILES): O=C(O)CC(NC(=O)C(Cc1ccc(O)c(O)c1)OC(=O)C=Cc1ccc(O)c(O)c1)C(=O)O (stereo not drawn) [Compound 15]
- IC50 (AP-1; [3]): 34.7 ± 21.3 µM

Structure (SMILES): COC(=O)C(Cc1ccc(O)c(O)c1)NC(=O)C(Cc1cc(O)c(O)cc1[N+](=O)[O-])OC(=O)C=Cc1ccc(O)c(O)c1 (stereo not drawn) [Compound 16]
- IC50 (AP-1; [3]): 21.3 ± 24 µM

Structure (SMILES): O=C(OC(Cc1ccc(O)c(O)c1)C(=O)O)C1=Cc2ccc(O)c(O)c2C(C(=O)OC(Cc2ccc(O)c(O)c2)C(=O)O)C1c1ccc(O)c(O)c1 (stereo not drawn) [Mena 9102 (3)]
- IC50 (AP-1; [3]): 1.4 ± 0.9 µM

Structure (SMILES): COC(=O)C(Cc1ccc(O)c(O)c1)NC(=O)[C@H](Cc1ccc(O)c(O)c1)OC(=O)/C=C/c1ccc(O)c(O)c1 (stereo partly drawn) [Compound 13]
- IC50 (AP-1; [3]): 0.8 ± 0.8 µM

Structure (SMILES): CCOC(=O)C(Cc1ccc(O)c(O)c1)NC(=O)[C@H](Cc1ccc(O)c(O)c1)OC(=O)/C=C/c1ccc(O)c(O)c1 (stereo partly drawn) [Compound 14]
- IC50 (AP-1; [3]): 1.2 ± 0.8 µM

Structure (SMILES): O=C(/C=C/c1cc(O)c(O)cc1[N+](=O)[O-])OC(Cc1cc(O)c(O)cc1[N+](=O)[O-])C(=O)O (stereo not drawn) [Compound 11]
- IC50 (AP-1; [3]): 21.3 ± 24 µM
